The record followed here is patent publication EP0046337A2, “Triazole compounds, a process for preparing them, their use as plant and pharmaceutical fungicides and as plant growth regulators and compositions containing them” (IMPERIAL CHEMICAL INDUSTRIES PLC, priority 1980, dated 1982).

Format in all cases: in vivo
Test [1] has as its system CERCOSPORA ARACHIDICOLA (PEANUT). The test can be described thus: Foliar fungal disease test on plants: Cercospora arachidicola on peanut. Particulars: 100 ppm active ingredient spray and root drench approximately 40 ppm a.i./dry soil, one or two days before inoculation. How it is done: (§1) The compounds were tested against a variety of foliar fungal diseases of plants. The technique employed was as follows. The plants were grown in John Innes Potting Compost (No 1 or 2) in 4 cm diameter minipots. A layer of fine sand was placed at the bottom of the pots containing the dicotyledonous plants to facilitate uptake of test compound by the roots. The test compounds were formulated either by bead milling with aqueous Dispersol T or as a solution in acetone or acetone/ethanol which was diluted to the required concentration immediately before use. For the foliage diseases, suspensions (100 ppm active ingredient) were sprayed […]. Exceptions to this were the tests on Botrytis cinerea and Venturia inaequalis. The sprays were applied to maximum retention and the root drenches to a final concentration equivalent to approximately 40 ppm a.i./dry soil. Tween 20, to give a final concentration of 0.05%, was added when the sprays were applied to cereals. For most of the tests the compound was applied to the soil (roots) and to the foliage (by spraying) one or two days before the plant was inoculated with the diseases. An exception was the test on Erysiphe graminis in which the plants were inoculated 24 hours before treatment. After inoculation, the plants were put into an appropriate environment to allow infection to take place and then incubated until the disease was ready for assessment. The period between inoculation and assessment varied from four to fourteen days according to the disease and environment. The disease control was recorded by the following grading:- • 4 = no disease • 3 = trace - 5% of disease on untreated plants • 2 = 6-25% of disease on untreated plants • 1 = 26-59% of disease on untreated plants • 0 = 60-100% of disease on untreated plants

Test [2] has as its system VENTURIA INEQUALIS (APPLE). The test is described as follows: Foliar fungal disease test on plants: Venturia inaequalis on apple. Particulars: 100 ppm active ingredient, named as an exception to the usual way of application, treatment one or two days before inoculation. The procedure:
as §1

The subject of test [3] is BOTRYTIS CINEREA (GRAPE). The test is described as follows: Foliar fungal disease test on plants: Botrytis cinerea on grape. Particulars: 100 ppm active ingredient, named as an exception to the usual way of application, treatment one or two days before inoculation. How it is done: as §1, with “For most of the tests the compound was applied to the soil (roots) and to the foliage (by spraying) one or two days before the plant was inoculated with the diseases. An exception was the test on Erysiphe graminis in which the plants were inoculated 24 hours before treatment.” left out, “The period between inoculation and assessment varied from four to fourteen days according to the disease and environment.” left out

The test system of test [4] is ERYSIPHE GRAMINIS (BARLEY). The test can be described thus: Foliar fungal disease test on plants: Erysiphe graminis on barley. Particulars: 100 ppm active ingredient spray and root drench approximately 40 ppm a.i./dry soil, plants inoculated 24 hours before treatment. How it is done:
as §1

In test [5] the test system is PUCCINIA RECONDITA (WHEAT). The test is described as follows: Foliar fungal disease test on plants: Puccinia recondita on wheat. The settings on record: 100 ppm active ingredient spray and root drench approximately 40 ppm a.i./dry soil, one or two days before inoculation, assessed four to fourteen days after inoculation. The procedure:
as §1

For the molecule `OC(Cn1cncn1)(c1ccccc1)c1cccs1` (centres unmarked) [Compound 1A, 1-(1,2,4-Triazol-1-yl)-2-phenyl-2-(2-thienyl)ethan-2-ol], the “disease control grading, CERCOSPORA ARACHIDICOLA (PEANUT)” value (from here on “disease control grading … (PEANUT)”) in test [1] is on record as 0 (0 = 60-100% of disease on untreated plants). In addition, the “disease control grading, VENTURIA INEQUALIS (APPLE)” value (“disease control grading … (APPLE)” for short) in test [2] is 0 (0 = 60-100% of disease on untreated plants). Also, the “disease control grading, BOTRYTIS CINEREA (GRAPE)” value in test [3] is 0 (0 = 60-100% of disease on untreated plants). For the same molecule, in test [4], the “disease control grading, ERYSIPHE GRAMINIS (BARLEY)” value (from here on “disease control grading … (BARLEY)”) is recorded as 4 (4 = no disease). Besides, the “disease control grading, PUCCINIA RECONDITA (WHEAT)” value (“disease control grading … (WHEAT)” for short) in test [5] is recorded as 3 (3 = trace - 5% of disease on untreated plants).
On to `OC(Cn1cnnc1)(c1ccc(Cl)s1)c1ccc(Cl)cc1Cl` (centres unmarked) [Compound 11B, 1-(1,2,4-Triazol-4-yl)-2-(2,4-dichlorophenyl)-2-(5-chloro-thlen-2-yl) ethan-2-ol], for which the “disease control grading … (PEANUT)” value in test [1] is listed as 1 (1 = 26-59% of disease on untreated plants). Moreover, in test [2], the “disease control grading … (APPLE)” value is 1 (1 = 26-59% of disease on untreated plants). Further, the “disease control grading, BOTRYTIS CINEREA (GRAPE)” value in test [3] is reported as 0 (0 = 60-100% of disease on untreated plants). In addition, the “disease control grading … (BARLEY)” value in test [4] is reported as 4 (4 = no disease). The “disease control grading … (WHEAT)” value in test [5] is recorded as 4 (4 = no disease).
For the molecule `OC(Cn1cncn1)(c1ccc(Cl)s1)c1ccc(Cl)cc1Cl` (stereo not drawn) [Compound 11A, 1-(1,2,4-Triazol-l-yl)-2-(2,4-dichloroplienyl)-2-(5-chlorothien-2-yl) ethan-2-ol], the “disease control grading … (PEANUT)” value in test [1] is given as 3 (3 = trace - 5% of disease on untreated plants). For the same molecule, the “disease control grading … (APPLE)” value in test [2] was 4 (4 = no disease). Besides, the “disease control grading … (BARLEY)” value in test [4] is on record as 4 (4 = no disease). Also, in test [5], the “disease control grading … (WHEAT)” value was 4 (4 = no disease).
